Measurements from patent US12029751B2, “Therapeutic agent for nervous system disease” (OSAKA UNIVERSITY, priority 2017, dated 2024).

Test system: rat spinal cord injury model
Experiment: Immunofluorescent staining of macrophages (M1, M2, M1/M2 ratio) in rat spinal cord injury model
Type: in vivo
Design: Number of macrophages: unit: /mm2
Description: Six-week-old female Wistar rats were used. The rats were purchased from Charles River Laboratories Japan, Inc. (Yokohama, Japan). Anesthesia was performed as follows. A 1:10 dilution of a mixture of three anesthetic agents in physiological saline was administered by intraperitoneal injection. One dose consisted of 0.2 mg/kg of midazolam, 0.015 mg/kg of medetomidine, and 0.25 mg/kg of butorphanol. The rat was placed in a prone position on an operating table, and a dorsal midline incision was made. The T10 vertebral arch was removed to expose the posterior face of the spinal cord, and the left spinal cord was hemisected using a sharp-pointed surgical scalpel (spitz mess). The skin was sutured using a 4-0 nylon thread and the surgery was completed. A comparison was made among three groups: a methylcobalamin treatment group, an untreated group, and a sham group. Immediately after the surgical operation, an osmotic minipump filled with methylcobalamin (1 mg/kg/day) or physiological saline was placed for the methylcobalamin treatment group and the untreated group, respectively, and left in the left dorsal subcutaneous space. The sham group underwent only resection of the Th10 vertebral arch.
The rat spinal cord injury model of Example 9-1 was used. At 7, 14, and 28 days after the surgery, the rats were anesthetized with an anesthetic agent, and perfusion fixation was performed with 4% PFA. Then, the spinal cord including the injury site was collected and fixed with 20% sucrose for 24 hours, and the fixed spinal cord was freeze-embedded. The embedded tissue was sliced into a 5-μm-thick slice in a nerve short-axis direction and placed on a glass slide. The slice was dried for 1 hour and fixed with 100% methanol for 30 minutes. The fixed slices were blocked, and cells were allowed to react with primary antibodies at 4° C. overnight. The cells were further allowed to react with a secondary antibody at room temperature for 1 hour so that the nuclei were labeled with DAPI.
Using transverse spinal cord sections on the affected side at 2 and 1 mm on the head side and at 1 and 2 mm on the tail side from the injury site, the number of macrophages, the number of M1 (pro-inflammatory type) macrophages, the proportion of M1 macrophages, the number of M2 (anti-inflammatory type) macrophages, and the proportion of M2 macrophage per unit area, as well as the M1/M2 ratio were measured and calculated.
The primary antibodies used were an anti-CD68 antibody, an anti-iNOS antibody, and an anti-Arg1 antibody. The secondary antibodies used were an Alexa 488-labeled goat anti-rabbit IgG antibody and an Alexa 568-labeled goat anti-mouse IgG antibody.

[1] = 7, 14 and 28 days after the surgery, 1 mg/kg/day
[2] = Table 16 (FIG. 16; day not given), 1 mm on the head side
[3] = Table 16 (FIG. 16; day not given), 1 mm on the tail side
[4] = Table 16 (FIG. 16; day not given), 2 mm on the head side
[5] = Table 16 (FIG. 16; day not given), 2 mm on the tail side
[6] = Table 17 (FIG. 17; day not given), 1 mm on the head side
[7] = Table 17 (FIG. 17; day not given), 1 mm on the tail side
[8] = Table 17 (FIG. 17; day not given), 2 mm on the head side
[9] = Table 17 (FIG. 17; day not given), 2 mm on the tail side
[10] = Table 18 (FIG. 18; day not given), 1 mm on the head side
[11] = Table 18 (FIG. 18; day not given), 1 mm on the tail side
[12] = Table 18 (FIG. 18; day not given), 2 mm on the head side
[13] = Table 18 (FIG. 18; day not given), 2 mm on the tail side

## C/C1=C2/[N-][C@H]([C@H](CC(N)=O)[C@@]2(C)CCC(=O)NC[C@@H](C)OP(=O)([O-])O[C@H]2[C@@H](O)[C@@H](n3cnc4cc(C)c(C)cc43)O[C@@H]2CO)[C@]2(C)N=C(/C(C)=C3N=C(/C=C4N=C1[C@@H](CCC(N)=O)C\4(C)C)[C@@H](CCC(N)=O)[C@]\3(C)CC(N)=O)[C@@H](CCC(N)=O)[C@]2(C)CC(N)=O.[CH3-].[Co+3] [MeCbl, methylcobalamin]
[1]
  M1 macrophages as compared with the untreated group: trends for decreased M1 macrophages
  M2 macrophages as compared with the untreated group: increased M2 macrophages
  number of accumulated macrophages per unit area as compared with the untreated group: trends for a smaller number
7 days after a surgery, 1 mm on the head side
  M1/M2: 0.5722
7 days after a surgery, 1 mm on the tail side
  M1/M2: 0.602
7 days after a surgery, 2 mm on the head side
  M1/M2: 0.8156
7 days after a surgery, 2 mm on the tail side
  M1/M2: 0.9337
14 days after a surgery, 1 mm on the head side
  M1/M2: 0.993
14 days after a surgery, 1 mm on the tail side
  M1/M2: 0.9409
14 days after a surgery, 2 mm on the head side
  M1/M2: 0.9106
14 days after a surgery, 2 mm on the tail side
  M1/M2: 0.8605
28 days after a surgery, 1 mm on the head side
  M1/M2: 2.457
28 days after a surgery, 1 mm on the tail side
  M1/M2: 4.3
28 days after a surgery, 2 mm on the head side
  M1/M2: 3.355
28 days after a surgery, 2 mm on the tail side
  M1/M2: 3.545
[2]
  M1 macropage ratio: 0.131
  Number of M1 macrophages/mm2: 37.00 /mm2
  Number of M2 macrophages/mm2: 63.85 /mm2
  Number of macrophages: 268.62
[3]
  M1 macropage ratio: 0.129
  Number of M1 macrophages/mm2: 43.07 /mm2
  Number of M2 macrophages/mm2: 76.13 /mm2
  Number of macrophages: 348.57
[4]
  M1 macropage ratio: 0.143
  Number of M1 macrophages/mm2: 20.43 /mm2
  Number of M2 macrophages/mm2: 25.87 /mm2
  Number of macrophages: 143.68
[5]
  M1 macropage ratio: 0.170
  Number of M1 macrophages/mm2: 27.02 /mm2
  Number of M2 macrophages/mm2: 28.76 /mm2
  Number of macrophages: 155.09
[6]
  M1 macrophage ratio: 0.122
  M2 macrophage ratio: 0.130
  Number of M1 macropages/mm2: 48.35 /mm2
  Number of M2 macrophages/mm2: 47.90 /mm2
  Number of macrophages: 362.17
[7]
  M1 macrophage ratio: 0.102
  M2 macrophage ratio: 0.112
  Number of M1 macropages/mm2: 43.74 /mm2
  Number of M2 macrophages/mm2: 43.12 /mm2
  Number of macrophages: 395.70
[8]
  M1 macrophage ratio: 0.103
  M2 macrophage ratio: 0.146
  Number of M1 macropages/mm2: 28.35 /mm2
  Number of M2 macrophages/mm2: 36.37 /mm2
  Number of macrophages: 271.15
[9]
  M1 macrophage ratio: 0.094
  M2 macrophage ratio: 0.143
  Number of M1 macropages/mm2: 25.54 /mm2
  Number of M2 macrophages/mm2: 28.29 /mm2
  Number of macrophages: 254.39
[10]
  M1 macrophage ratio: 0.090
  M2 macropahge ratio: 0.039
  Number of M1 macrophages/mm2: 29.78 /mm2
  Number of M2 macrophages/mm2: 12.86 /mm 2
  Number of macrophages: 320.22
[11]
  M1 macrophage ratio: 0.132
  M2 macropahge ratio: 0.032
  Number of M2 macrophages/mm2: 10.33 /mm 2
  Number of macrophages: 342.11
Table 18 (FIG. 18; day not given), 1 mm on the tail side (last position column)
  Number of M1 macrophages/mm2: 24.68 /mm2
Table 18 (FIG. 18; day not given), 1 mm on the tail side (third position column)
  Number of M1 macrophages/mm2: 44.79 /mm2
[12]
  M1 macrophage ratio: 0.089
  M2 macropahge ratio: 0.032
  Number of M1 macrophages/mm2: 20.16 /mm2
  Number of M2 macrophages/mm2: 7.65 /mm 2
  Number of macrophages: 230.75
[13]
  M1 macrophage ratio: 0.095
  M2 macropahge ratio: 0.032
  Number of M2 macrophages/mm2: 7.42 /mm 2
  Number of macrophages: 246.52
